{"source": "the NIST ThermoML archive (doi:10.1021/je600527c)", "key": {"[1]": {"details": "298.15 K; 101.33 kPa; Liquid; Pycnometric method"}, "[2]": {"assay": "refractive index (Na D-line) (dimensionless)", "details": "298.15 K; 101.33 kPa; Liquid; Standard Abbe refractometry"}}, "note": "Numbers after ± are expanded uncertainties."}
{"smiles": "CC(=O)O", "note": "[acetic acid]", "values": [{"measurement": "mass density", "setting": "[1]", "result": "1045 ± 8", "unit": "kg/m3"}, {"measurement": "refractive index", "setting": "[2]", "result": "1.37 ± 0.001"}]}
